Experiment: xn = mol fraction of the nth substance listed
Settings: 95.99 kPa, Liquid, Vibrating tube method

OCCOCCOCCO [triethylene glycol] + O
mass density [kg/m3]
Settings | 293.15 K | 298.15 K | 303.15 K | 308.15 K | 313.15 K
x2 = 0 | 1123.12 | 1119.01 | 1114.79 | 1110.81 | 1106.7
x2 = 0.1056 | 1122.61 | 1118.31 | 1114.09 | 1109.99 | 1105.84
x2 = 0.2069 | 1121.88 | 1117.53 | 1113.37 | 1109.16 | 1105.25
x2 = 0.3103 | 1120.77 | 1116.52 | 1112.38 | 1108.31 | 1104.34
x2 = 0.4843 | 1118.69 | 1114.57 | 1110.18 | 1106.08 | 1101.98
x2 = 0.5016 | 1118.43 | 1114.12 | 1109.85 | 1105.68 | 1101.69
x2 = 0.5952 | 1116.29 | 1111.83 | 1107.57 | 1103.19 | 1099.18
x2 = 0.6015 | 1116.07 | 1111.61 | 1107.35 | 1102.97 | 1098.96
x2 = 0.6787 | 1112.29 | 1107.99 | 1103.97 | 1099.53 | 1095.62
x2 = 0.7835 | 1102.7 | 1098.52 | 1094.74 | 1090.2 | 1086.93
x2 = 0.8183 | 1096.95 | 1092.99 | 1089.46 | 1084.98 | 1081.89
x2 = 0.8472 | 1090.49 | 1086.81 | 1083.32 | 1078.84 | 1076.08
x2 = 0.8719 | 1083.52 | 1080.07 | 1076.78 | 1072.37 | 1069.93
x2 = 0.8925 | 1076.28 | 1073.04 | 1069.94 | 1065.64 | 1063.47
x2 = 0.9106 | 1068.64 | 1065.62 | 1062.7 | 1058.54 | 1056.6
x2 = 0.9254 | 1061.24 | 1058.41 | 1055.66 | 1051.66 | 1049.89
x2 = 0.9303 | 1058.23 | 1055.05 | 1052.47 | 1049.13 | 1047.41
x2 = 0.939 | 1053.42 | 1050.36 | 1048.08 | 1044.27 | 1042.63
x2 = 0.951 | 1045.41 | 1042.85 | 1040.42 | 1036.82 | 1035.27
x2 = 0.9599 | 1037.69 | 1036.35 | 1034.04 | 1030.61 | 1029.11
x2 = 0.9707 | 1029.87 | 1027.7 | 1025.28 | 1022.68 | 1019.99
x2 = 0.979 | 1021.78 | 1019.75 | 1017.72 | 1014.8 | 1013.28
x2 = 0.9866 | 1013.57 | 1011.61 | 1009.56 | 1007.37 | 1005.16
x2 = 0.9936 | 1005.7 | 1003.82 | 1001.99 | 999.97 | 997.49

Reference: the NIST ThermoML archive (doi:10.1016/j.fluid.2015.07.030)
